Reference: BindingDB's records for doi:10.1021/cb100060v (Binghamton University, 2010)

Target: T1, Tubulin--tyrosine ligase (Homo sapiens, UniProt Q8NG68)
T1 sequence (Q8NG68 whole entry): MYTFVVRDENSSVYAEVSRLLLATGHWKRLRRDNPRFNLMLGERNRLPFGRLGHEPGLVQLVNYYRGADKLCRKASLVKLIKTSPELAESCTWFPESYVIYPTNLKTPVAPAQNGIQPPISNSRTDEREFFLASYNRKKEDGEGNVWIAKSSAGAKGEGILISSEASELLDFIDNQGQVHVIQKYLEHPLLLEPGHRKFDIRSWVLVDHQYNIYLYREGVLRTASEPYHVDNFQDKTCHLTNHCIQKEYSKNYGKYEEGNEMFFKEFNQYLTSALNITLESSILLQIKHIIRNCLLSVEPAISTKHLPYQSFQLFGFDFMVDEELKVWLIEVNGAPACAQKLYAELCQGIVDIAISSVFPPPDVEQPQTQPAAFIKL
Assay: [3H]-Tyr Incorporation Assay
Details: pH 6.8; 37 °C
Excerpt: Inhibition of [3H]-L-tyrosine incorporation into tubulin by enzyme tubulin tyrosine ligase (TTL).

**Q.** For [N-]=[N+]=Nc1cc(CC(N)C(=O)O)ccc1O (stereo not drawn) [3-Azidotyrosine], which Ki is on record?
**A.** The Ki was 200 µM.

**Q.** Which Ki does the source give for NC(Cc1ccc(O)c(C=O)c1)C(=O)O (stereo not drawn) [3-Formyltyrosine] here?
**A.** The Ki was 300 µM.

**Q.** With Nc1ccc(CC(N)C(=O)O)cc1 (stereo not drawn) [4-Aminophenylalanine] as the molecule, how does the Ki read?
**A.** Its Ki is greater than 4000 µM.
